{"source": "PubChem BioAssay AID1259410", "about": "(Chemical Carcinogenesis Research Information System (CCRIS), 2018)", "origin": "cited, not measured here", "system": "rodent tumor promotion studies, tumor incidence", "assay": "CCRIS tumor promotion studies", "key": {"[1]": {"conditions": "Carcinogen: 7,12-DIMETHYLBENZ(A)ANTHRACENE, Doses [Carcinogen]: TOP, Route [Carcinogen]: DERMAL, Route [Promoter]: DERMAL, Species: MOUSE, Strain/Sex: FEMALE"}}}
{"smiles": "CC1=C[C@H]2[C@@]3(O)[C@H](C)[C@@H](O)[C@]4(O)[C@H]([C@@H]3C=C(CO)C[C@]2(O)C1=O)C4(C)C", "values": [{"measurement": "outcome", "setting": "Carcinogen: 2-(ACETYLAMINO)FLUORINE, Doses [Carcinogen]: TRANS-PLACENTAL, Route [Carcinogen]: TRANS-PLACENTAL, Route [Promoter]: INTRAPERITONEAL, Species: MOUSE, Strain/Sex: C57BL/MALE,FEMALE", "result": "liver"}, {"measurement": "outcome", "setting": "Carcinogen: 7,12-DIMETHYLBENZ(A)ANTHRACENE, Doses [Carcinogen]: IG, Route [Carcinogen]: GAVAGE, Route [Promoter]: INTRAPERITONEAL, Species: RAT, Strain/Sex: FEMALE", "result": "mammary glands; hematopoietic system (leukemia, thymic)"}, {"measurement": "outcome", "setting": "Carcinogen: 7,12-DIMETHYLBENZ(A)ANTHRACENE, Doses [Carcinogen]: TOP, Route [Carcinogen]: DERMAL, Route [Promoter]: INTRAPERITONEAL, Species: MOUSE, Strain/Sex: FEMALE", "result": "hematopoietic system (leukemia, nonthymic)"}, {"measurement": "outcome", "setting": "Carcinogen: DIMETHYLNITROSAMINE, Doses [Carcinogen]: SC, Route [Carcinogen]: SUBCUTANEOUS, Route [Promoter]: INTRAPERITONEAL, Species: MOUSE, Strain/Sex: MALE,FEMALE", "result": "lung; liver"}]}
{"smiles": "C=C(/C=C/C=C(/CO)[C@@H]1CC[C@]2([C@H](CCCO)/C(=C(/C)C=O)CC[C@]2(C)O)[C@@H]1O)CCC=C(C)C", "values": [{"measurement": "outcome", "setting": "Carcinogen: 7,12-DIMETHYLBENZ[A]ANTHRACENE, 57-97-6, Doses [Carcinogen]: 100 UG ONCE, Doses [Promoter]: 0, 400 NMOL 2/WK FOR 19 WK BEGINNING 1WK POST CARCINOGEN DOSE (STUDY DURATION: 20 WK), Route [Carcinogen]: DERMAL, Route [Promoter]: DERMAL, Species: MOUSE, Strain/Sex: CD-1/FEMALE", "result": "skin: tumor"}]}
{"smiles": "Oc1ccc(Cl)cc1", "values": [{"measurement": "outcome", "setting": "[1]", "result": "integumentary system (skin)"}]}
{"smiles": "O=C([O-])/C=C/C(=O)[O-].[Fe+2]", "values": [{"measurement": "outcome", "setting": "Carcinogen: DIMETHYLHYDRAZINE, 540-73-8, Doses [Carcinogen]: 20 MG/KG 1/WK FOR 10 WK, Doses [Promoter]: 0, 3.5% IN DIET FOR 10 WK BEGINNING POST CARCINOGEN TREATMENT (STUDY DURATION: 20 WK), Route [Carcinogen]: SUBCUTANEOUS, Route [Promoter]: ORAL, Species: MOUSE, Strain/Sex: NMRI/MALE", "result": "colon/rectum: tumor"}, {"measurement": "outcome", "setting": "Carcinogen: DIMETHYLHYDRAZINE, 540-73-8, Doses [Carcinogen]: 20 MG/KG 1/WK FOR 10 WK, Doses [Promoter]: 0, 3.5% IN DIET FOR 10 WK CONCURRENTLY WITH CARCINOGEN TREATMENT (STUDY DURATION: 20 WK), Route [Carcinogen]: SUBCUTANEOUS, Route [Promoter]: ORAL, Species: MOUSE, Strain/Sex: NMRI/MALE", "result": "colon/rectum: tumor"}]}
{"smiles": "CN(C)c1ncnc2nc[nH]c12", "values": [{"measurement": "outcome", "setting": "Carcinogen: DIETHYLNITROSAMINE, 55-18-5, 2-ACETYLAMINOFLUORENE, 53-96-3, CARBON TETRACHLORIDE, 56-23-5, Carcinogen: DIETHYLNITROSAMINE, 55-18-5, 2-ACETYLAMINOFLUORENE, 53-96-3, CARBON TETRACHLORIDE, 56-23-5, Doses [Carcinogen]: 200 MG/KG BW ONCE FOLLOWED 2 WK LATER BY 0.03% 2-ACETYLAMINOFLUORENE IN DIET FOR 2 WK PLUS 2 ML/KG CARBON TETRACHLORIDE, Doses [Promoter]: 0, 0.015% IN DIET FOR 21 WK BEGINNING AT END OF INITIATION PHASE (STUDY DURATION: 25 WK), Route [Carcinogen]: INTRAPERITONEAL, ORAL, Route [Carcinogen]: INTRAPERITONEAL, ORAL, Route [Promoter]: ORAL, Species: RAT, Strain/Sex: WISTAR/MALE", "result": "liver: hepatocellular carcinoma"}, {"measurement": "outcome", "setting": "Carcinogen: DIETHYLNITROSAMINE, 55-18-5, Doses [Carcinogen]: 200 MG/KG BW ONCE, Doses [Promoter]: 0, 0.005, 0.02% IN DIET FOR 23 WK BEGINNING 2 WK POST CARCINOGEN TREATMENT (STUDY DURATION: 25 WK), Doses [Promoter]: 0, 0.005, 0.02% IN DIET FOR 23 WK BEGINNING 2 WK POST CARCINOGEN TREATMENT (STUDY DURATION: 25 WK), Route [Carcinogen]: INTRAPERITONEAL, Route [Promoter]: ORAL, Species: RAT, Strain/Sex: WISTAR/MALE", "result": "liver: hepatocellular carcinoma"}]}
{"smiles": "CN(CCCC(=O)c1cccnc1)N=O", "values": [{"measurement": "outcome", "setting": "Carcinogen: Smoke, Doses [Carcinogen]: Exposure to smoke from non-filtered cigarettes for 6 mo, urine cotinine levels suggest equivalence to 1 pack a day human, Doses [Promoter]: 50 mg/kg every 4 wk for total of 4 doses, Route [Carcinogen]: Inhalation, Route [Promoter]: Subcutaneous, Species: Ferret, Strain/Sex: Male ( 9, 12/Group)", "result": "lung: tumors: squamous cell carcinomas (1/12), adenocarcinomas (3/12) and adenos"}]}
{"smiles": "COC(=O)/C=C/C=C/CCCCCCCCCCCCCO", "values": [{"measurement": "outcome", "setting": "Carcinogen: 7,12-DIMETHYLBENZ(A)ANTHRACENE, Doses [Carcinogen]: TOP, Route [Carcinogen]: DERMAL, Route [Promoter]: DERMAL, Species: MOUSE, Strain/Sex: MALE,FEMALE", "result": "integumentary system (skin)"}]}
{"smiles": "Clc1ccc(C(c2ccc(Cl)cc2)C(Cl)(Cl)Cl)cc1", "values": [{"measurement": "outcome", "setting": "Carcinogen: 2-(ACETYLAMINO)FLUORINE, Doses [Carcinogen]: DIET, Doses [Promoter]: IN DIET, Route [Carcinogen]: ORAL, Route [Promoter]: ORAL, Species: RAT, Strain/Sex: MALE", "result": "liver"}, {"measurement": "outcome", "setting": "Carcinogen: N-METHYL-N'-NITRO-N-NITROSOGUANIDINE, 70-25-7, Doses [Carcinogen]: 50 PPM FOR 60 MIN, Doses [Promoter]: 0, 100 PPM IN DIET BEGINNING 14 WK POST CARCINOGEN DOSE (STUDY DURATION: 12 MO), Route [Carcinogen]: IMMERSION, Route [Promoter]: ORAL, Species: FISH, Strain/Sex: RAINBOW TROUT", "result": "liver: tumor"}, {"measurement": "outcome", "setting": "Carcinogen: N-NITROSODIETHYLAMINE, 55-18-5, Doses [Carcinogen]: 90 MG/KG BW ONCE, Doses [Promoter]: 0, 300 PPM IN DIET FOR 53 WK BEGINNING 2 WK POST CARCINOGEN DOSE (STUDY DURATION: 55 WK), Route [Carcinogen]: INTRAPERITONEAL, Route [Promoter]: ORAL, Species: MOUSE, Strain/Sex: D2B6F1/MALE", "result": "liver: hepatocellular adenoma, hepatocellular carcinoma"}, {"measurement": "outcome", "setting": "Doses [Carcinogen]: 0.5 PPM FOR 30 MIN, Doses [Promoter]: 0, 100 PPM IN DIET BEGINNING 14 WK POST CARCINOGEN DOSE (STUDY DURATION: 12 MO), Route [Carcinogen]: IMMERSION, Route [Promoter]: ORAL, Species: FISH, Strain/Sex: RAINBOW TROUT", "result": "liver: tumor"}, {"measurement": "outcome", "setting": "Doses [Carcinogen]: 50 UG 2/WK FOR WK 1-4 OF STUDY THEN 75 UG 2/WK FOR WK 5-8, Doses [Promoter]: 0, 7.5 MG 2/WK FOR 14 WK BEGINNING 1 WK POST CARCINOGEN TREATMENT (STUDY DURATION: 1 YR), Route [Carcinogen]: GAVAGE, Route [Promoter]: GAVAGE, Species: RAT, Strain/Sex: WISTAR/MALE", "result": "liver: carcinoma"}, {"measurement": "outcome", "setting": "Doses [Carcinogen]: 50 UG 2/WK FOR WK 1-4 OF STUDY THEN 75 UG 2/WK FOR WK 5-8, Doses [Promoter]: 0, 7.5 MG 2/WK FOR 14 WK BEGINNING 3 WK POST CARCINOGEN TREATMENT (STUDY DURATION: 1 YR), Route [Carcinogen]: GAVAGE, Route [Promoter]: GAVAGE, Species: RAT, Strain/Sex: WISTAR/MALE", "result": "liver: carcinoma"}]}
{"smiles": "COc1ccc(O)cc1", "values": [{"measurement": "outcome", "setting": "Carcinogen: DIETHYLNITROSAMINE, 55-18-5, N-METHYLNITROSOUREA, 684-93-5, 1,2-DIMETHYLHYDRAZINE, 540-73-8, N-BUTYL-N-(4-HYDROXYBUTYL)N, Carcinogen: DIETHYLNITROSAMINE, 55-18-5, N-METHYLNITROSOUREA, 684-93-5, 1,2-DIMETHYLHYDRAZINE, 540-73-8, N-BUTYL-N-(4-HYDROXYBUTYL)N, Doses [Carcinogen]: 100 MG/KG BW DEN ONCE FOLLOWED BY 20 MG/KG BW MNU 2/WK FOR 2 WK THEN 40 MG/KG BW DMH 2/WK FOR THE NEXT 2 WK, 0.05% BBN I, Doses [Promoter]: 0, 0.4% IN DIET FOR 24 WK BEGINNING POST CARCINOGEN TREATMENT (STUDY DURATION: 28 WK), Route [Carcinogen]: INTRAPERITONEAL, INTRAPERITONEAL, SUBCUTANEOUS, ORAL, Route [Carcinogen]: INTRAPERITONEAL, INTRAPERITONEAL, SUBCUTANEOUS, ORAL, Route [Promoter]: ORAL, Species: RAT, Strain/Sex: F344/MALE", "result": "forestomach: papilloma"}]}
{"smiles": "c1ccc2c(c1)cc1ccc3cccc4ccc2c1c34", "values": [{"measurement": "outcome", "setting": "Carcinogen: BENZO[A]PYRENE [50-32-8], Doses [Carcinogen]: 8 MMOL/MOUSE 3X/WK FOR 25 WKS (STUDY DURATION: 30 WKS), Doses [Promoter]: UVA 40 KJ/M2 FOR 25 WKS 2 HR AFTER CARCINOGEN TREATMENT (STUDY DURATION: 30 WKS), Route [Carcinogen]: DERMAL, Route [Promoter]: IRRADIATION TO SKIN, Species: MOUSE, Strain/Sex: SKH-1/FEMALE (20/GROUP)", "result": "skin: tumor incidence and multiplicity increased"}]}
{"smiles": "ClC1C(Cl)C(Cl)C(Cl)C(Cl)C1Cl", "note": "(stereo not given)", "values": [{"measurement": "outcome", "setting": "Carcinogen: DIETHYLNITROSAMINE, 55-18-5, Doses [Carcinogen]: 5 UG/G BW IN 0.1 ML SALINE ONCE AT 15 D OF AGE, Doses [Promoter]: 0, 250 PPM IN DIET FOR 24 WK BEGINNING AT 28 D OF AGE (STUDY DURATION: 26 WK), Route [Carcinogen]: INTRAPERITONEAL, Route [Promoter]: ORAL, Species: MOUSE, Strain/Sex: B6C3F1/FEMALE", "result": "liver: adenoma"}]}
{"smiles": "C[C@H](CCC(=O)O)[C@H]1CC[C@H]2[C@@H]3[C@H](O)C[C@@H]4C[C@H](O)CC[C@]4(C)[C@H]3C[C@H](O)[C@]12C", "values": [{"measurement": "outcome", "setting": "Carcinogen: AZOXYMETHANE, 25843-45-2, Doses [Carcinogen]: 15 MG/KG BW 1/WK FOR 2 WK, Doses [Promoter]: 0, 0.4% IN THE DIET FOR 28 WK BEGINNING 2 WK PRIOR TO CARCINOGEN TREATMENT (STUDY DURATION: 30 WK), Route [Carcinogen]: SUBCUTANEOUS, Route [Promoter]: ORAL, Species: RAT, Strain/Sex: F344/MALE", "result": "colon: tumor"}, {"measurement": "outcome", "setting": "Doses [Carcinogen]: IR, Route [Carcinogen]: RECTAL, Route [Promoter]: RECTAL, Species: RAT, Strain/Sex: FEMALE", "result": "colon"}]}
{"smiles": "CCCCCCCCCC", "values": [{"measurement": "outcome", "setting": "[1]", "result": "integumentary system (skin)"}, {"measurement": "outcome", "setting": "Carcinogen: BENZO(A)PYRENE, Doses [Carcinogen]: TOP, Route [Carcinogen]: DERMAL, Route [Promoter]: DERMAL, Species: MOUSE, Strain/Sex: FEMALE", "result": "integumentary system (skin)"}]}
